# Laboratory results published in patent US11958861B2, “Spirocyclic lactams as JAK2 V617F inhibitors” (Incyte Corporation, priority 2021, dated 2024).
# pIC50: −log10 of the molar value. Where a name gives a salt, the structure may show the parent alone.
# What was measured:
# [1] = molecular target: T1, pseudo-kinase domain (JH2, amino-acids 536-812) of human V617F mutant JAK2 (Homo sapiens, UniProt O60674, F794H/V617F/W659A/W777A); assay: JAK2 LanthaScreen JH2-V617F Binding Assay; conditions: 1 hour at 25° C.
# T1 construct: pseudo-kinase domain (JH2, amino-acids 536-812 with 3 surface mutations W659A, W777A, F794H); purchased BPS Bioscience 79498; host or cells: baculovirus expression system
# T1 sequence (O60674 536-812 V617F/W659A/W777A/F794H): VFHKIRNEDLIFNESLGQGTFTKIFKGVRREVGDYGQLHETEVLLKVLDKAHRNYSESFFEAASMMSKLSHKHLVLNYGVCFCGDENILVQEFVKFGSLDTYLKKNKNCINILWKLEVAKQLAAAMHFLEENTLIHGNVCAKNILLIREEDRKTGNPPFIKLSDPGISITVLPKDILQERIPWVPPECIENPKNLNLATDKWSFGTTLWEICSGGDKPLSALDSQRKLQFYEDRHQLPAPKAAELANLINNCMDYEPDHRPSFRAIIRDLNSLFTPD
# In short: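 Serially diluted compounds are mixed with 0.26 nM protein, 50 nM fluorescent JAK2-JH2 tracer and 0.25 nM terbium-labelled streptavidin, then incubated 1 h at 25° C. LanthaScreen signal is read, and IC50 is fitted.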
# [2] = molecular target: T2, pseudo-kinase domain (JH2, amino-acids 536-812) of human Wild Type JAK2 (Homo sapiens, UniProt O60674, F794H/W659A/W777A); assay: JAK2 LanthaScreen JH2-WT Binding Assay; conditions: 1 hour at 25° C.
# T2 construct: pseudo-kinase domain (JH2, amino-acids 536-812 with 3 surface mutations W659A, W777A, F794H); purchased BPS Bioscience 79463; host or cells: baculovirus expression system
# T2 sequence (O60674 536-812 W659A/W777A/F794H): as the sequence (O60674 536-812 V617F/W659A/W777A/F794H) above, with F82V counted along it
# In short: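 TR-FRET tracer displacement: 0.145 nM biotinylated JH2 protein, 50 nM fluorescent tracer, 0.25 nM streptavidin-Tb, compound dilution series; 50 mM Tris pH 7.5, 10 mM MgCl2, 5 mM DTT; 1 h, 25° C. Non-specific binding with 2 mM ATP. IC50 by 4-parameter fit.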
# [3] = molecular target: T3, catalytic domain (JH1, amino acids 826-1132) of human JAK2 (Homo sapiens, UniProt O60674); assay: JAK2 LanthaScreen JH1 Binding Assay; conditions: 2 hours at 25° C.
# T3 construct: catalytic domain (JH1, amino acids 826-1132) of human JAK2; purchased Carna Biosciences 08-445-20N; host or cells: baculovirus expression system
# T3 sequence (O60674 826-1132): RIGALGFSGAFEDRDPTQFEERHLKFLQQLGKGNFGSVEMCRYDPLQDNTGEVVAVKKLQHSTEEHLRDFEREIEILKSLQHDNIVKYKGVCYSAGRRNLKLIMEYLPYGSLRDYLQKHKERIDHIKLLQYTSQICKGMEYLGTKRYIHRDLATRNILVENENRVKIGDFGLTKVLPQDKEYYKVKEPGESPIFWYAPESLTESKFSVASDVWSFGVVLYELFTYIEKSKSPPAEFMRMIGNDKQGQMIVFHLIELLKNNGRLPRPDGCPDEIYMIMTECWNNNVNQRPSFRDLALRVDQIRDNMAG
# In short: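 Reaction held 1.5 nM biotinylated FLAG-JAK2 JH1, 50 nM tracer and 0.5 nM streptavidin-Tb in pH 7.5 Tris buffer; 2 mM ATP defined nonspecific binding.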
# [4] = molecular target: T4, catalytic domain (JH1, amino acids 808-1132) of human JAK2 (Homo sapiens, UniProt O60674); assay: JAK2 HTRF Enzyme Activity Assay; type: biochemical; conditions: ATP 30 μM, read-out: ENZ 30UMATP
# T4 construct: catalytic domain (JH1, amino acids 808-1132) of human JAK2; His (N); purchased BPS Bioscience 40450; host or cells: baculovirus expression system
# T4 sequence (O60674 808-1132): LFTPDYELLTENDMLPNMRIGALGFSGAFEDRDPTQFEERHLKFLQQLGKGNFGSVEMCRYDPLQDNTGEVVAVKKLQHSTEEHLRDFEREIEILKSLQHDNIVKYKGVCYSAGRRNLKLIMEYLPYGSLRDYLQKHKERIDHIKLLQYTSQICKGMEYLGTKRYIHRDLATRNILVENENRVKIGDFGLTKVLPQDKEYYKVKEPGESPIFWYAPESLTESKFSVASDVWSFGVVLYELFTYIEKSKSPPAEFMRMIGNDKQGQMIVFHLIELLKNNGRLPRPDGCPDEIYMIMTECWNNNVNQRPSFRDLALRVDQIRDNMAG
# In short: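 IC50 values come from a four-parameter fit of HTRF signal (Eu-PY20 antibody/streptavidin-APC, EDTA-quenched). Reaction: 0.015 nM N-His JAK2 catalytic domain (baculovirus), 500 nM biotin-peptide, 30 μM or 1 mM ATP, Tris pH 7.5 buffer, 60 min, 25° C.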
Compound,pIC50 [1],pIC50 [2],pIC50 [3],pIC50 [4]
"CCNC(=O)N1CC(CC#N)(N2CCC3(CC2)C(=O)N(C)c2cnc4[nH]c(-c5cnn(C)c5)c(-c5ccccc5)c4c23)C1 [Example 25, 3-(Cyanomethyl)-N-ethyl-3-(6-methyl-2-(1-methyl-1H-pyrazol-4-yl)-7-oxo-1-phenyl-6,7-dihydro-3H-spiro[dipyrrolo[2,3-b:3′,2′-d]pyridine-8,4′-piperidin]-1′-yl)azetidine-1-carboxamide, trifluoroacetate salt]",≥ 7.00,≥ 7.00,5.90 to 6.30,6.30 to 7.00
"CCNC(=O)NC1CC(CC#N)(N2CCC3(CC2)C(=O)N(C)c2cnc4[nH]c(-c5cnn(C)c5)c(-c5ccccc5)c4c23)C1 (centres unmarked) [Example 28, 1-(3-(Cyanomethyl)-3-(6-methyl-2-(1-methyl-1H-pyrazol-4-yl)-7-oxo-1-phenyl-6,7-dihydro-3H-spiro[dipyrrolo[2,3-b:3′,2′-d]pyridine-8,4′-piperidin]-1′-yl)cyclobutyl)-3-ethylurea, trifluoroacetate salt]",≥ 7.00,≥ 7.00,6.30 to 7.00,6.30 to 7.00
"CN1C(=O)C2(CCN(C3(CC#N)CC(NS(=O)(=O)c4ccccc4)C3)CC2)c2c1cnc1[nH]c(-c3cnn(C)c3)c(-c3ccccc3)c21 (centres unmarked) [Example 29, N-(3-(Cyanomethyl)-3-(6-methyl-2-(1-methyl-1H-pyrazol-4-yl)-7-oxo-1-phenyl-6,7-dihydro-3H-spiro[dipyrrolo[2,3-b:3′,2′-d]pyridine-8,4′-piperidin]-1-yl)cyclobutyl)benzenesulfonamide, trifluoroacctate salt]",≥ 7.00,≥ 7.00,5.90 to 6.30,5.90 to 6.30
"CN1C(=O)C2(CCN(C3(CC#N)CCC3)CC2)c2c1cnc1[nH]c(-c3cnn(CC(F)F)c3)c(-c3ccc4c(cnn4C)c3)c21 [Example 30, 2-(1-(2-(1-(2,2-Difluoroethyl)-1H-pyrazol-4-yl)-6-methyl-1-(1-methyl-1H-indazol-5-yl)-7-oxo-6,7-dihydro-3H-spiro[dipyrrolo[2,3-b:3′,2′-d]pyridine-8,4′-piperidin]-1′-yl)cyclobutyl)acetonitrile, trifluoroacetate salt]",≥ 7.00,≥ 7.00,6.30 to 7.00,6.30 to 7.00
"CN1C(=O)C2(CCN(C3(CC#N)CCC3)CC2)c2c1cnc1[nH]c(-c3cnn(C)c3)c(-c3ccc4c(cnn4C)c3)c21 [Example 31, 2-(1-(6-Methyl-1-(1-methyl-1H-indazol-5-yl)-2-(1-methyl-1H-pyrazol-4-yl)-7-oxo-6,7-dihydro-3H-spiro[dipyrrolo[2,3-b:3′,2′-d]pyridine-8,4′-piperidin]-1′-yl)cyclobutyl)acetonitrile, trifluoroacetate salt]",≥ 7.00,≥ 7.00,6.30 to 7.00,6.30 to 7.00
"CN1C(=O)C2(CCN(C3(CC#N)CCC3)CC2)c2c1cnc1[nH]c(-c3cnn(CC(C)(C)O)c3)c(-c3ccc4c(cnn4C)c3)c21 [Example 32, 2-(1-(2-(1-(2-Hydroxy-2-methylpropyl)-1H-pyrazol-4-yl)-6-methyl-1-(1-methyl-1H-indazol-5-yl)-7-oxo-6,7-dihydro-3H-spiro[dipyrrolo[2,3-b:3′,2′-d]pyridine-8,4′-piperidin]-1′-yl)cyclobutyl)acetonitrile, trifluoroacetate salt]",≥ 7.00,≥ 7.00,6.30 to 7.00,6.30 to 7.00
"CN1C(=O)C2(CCN(C3(CC#N)CCC3)CC2)c2c1cnc1[nH]c(-c3cnn(CC(F)(F)F)c3)c(-c3ccc4c(cnn4C)c3)c21 [Example 33, 2-(1-(6-Methyl-1-(1-methyl-1H-indazol-5-yl)-7-oxo-2-(1-(2,2,2-trifluoroethyl)-1H-pyrazol-4-yl)-6,7-dihydro-3H-spiro[dipyrrolo[2,3-b:3′,2′-d]pyridine-8,4′-piperidin]-1′-yl)cyclobutyl)acetonitrile, trifluoroacetate salt]",≥ 7.00,≥ 7.00,5.90 to 6.30,5.90 to 6.30
"CCS(=O)(=O)c1ccc(-c2[nH]c3ncc4c(c3c2-c2ccc3c(cnn3C)c2)C2(CCN(C3(CC#N)CCC3)CC2)C(=O)N4C)cc1 [Example 35, 2-(1-(2-(4-(Ethylsulfonyl)phenyl)-6-methyl-1-(1-methyl-1H-indazol-5-yl)-7-oxo-6,7-dihydro-3H-spiro[dipyrrolo[2,3-b:3′,2′-d]pyridine-8,4′-piperidin]-1′-yl)cyclobutyl)acetonitrile, trifluoroacetate salt]",≥ 7.00,≥ 7.00,5.90 to 6.30,5.90 to 6.30
"COCCn1cc(-c2[nH]c3ncc4c(c3c2-c2ccc3c(cnn3C)c2)C2(CCN(C3(CC#N)CCC3)CC2)C(=O)N4C)cn1 [Example 36, 2-(1-(2-(1-(2-Methoxyethyl)-1H-pyrazol-4-yl)-6-methyl-1-(1-methyl-1H-indazol-5-yl)-7-oxo-6,7-dihydro-3H-spiro[dipyrrolo[2,3-b:3′,2′-d]pyridine-8,4′-piperidin]-1′-yl)cyclobutyl)acetonitrile, trifluoroacetate salt]",≥ 7.00,≥ 7.00,6.30 to 7.00,6.30 to 7.00
"CN1C(=O)C2(CCN(C3(CC#N)CCC3)CC2)c2c1cnc1[nH]c(-c3cnn(C(C)(C)CO)c3)c(-c3ccc4c(cnn4C)c3)c21 [Example 37, 2-(1-(2-(1-(1-Hydroxy-2-methylpropan-2-yl)-1H-pyrazol-4-yl)-6-methyl-1-(1-methyl-1H-indazol-5-yl)-7-oxo-6,7-dihydro-3H-spiro[dipyrrolo[2,3-b:3′,2′-d]pyridine-8,4′-piperidin]-1′-yl)cyclobutyl)acetonitrile, trifluoroacetate salt]",≥ 7.00,≥ 7.00,6.30 to 7.00,6.30 to 7.00
"CN1C(=O)C2(CCN(C3(CC#N)CCC3)CC2)c2c1cnc1[nH]c(-c3cnn(CCN4CCOCC4)c3)c(-c3ccc4c(cnn4C)c3)c21 [Example 38, 2-(1-(6-Methyl-1-(1-methyl-1H-indazol-5-yl)-2-(1-(2-morpholinoethyl)-1H-pyrazol-4-yl)-7-oxo-6,7-dihydro-3H-spiro[dipyrrolo[2,3-b:3′,2′-d]pyridine-8,4′-piperidin]-1′-yl)cyclobutyl)acetonitrile, trifluoroacetate salt]",≥ 7.00,≥ 7.00,6.30 to 7.00,≥ 7.00
"CN1C(=O)C2(CCN(C3(CC#N)CCC3)CC2)c2c1cnc1[nH]c(-c3cnn(CC4CC4)c3)c(-c3ccc4c(cnn4C)c3)c21 [Example 39, 2-(1-(2-(1-(Cyclopropylmethyl)-1H-pyrazol-4-yl)-6-methyl-1-(1-methyl-1H-indazol-5-yl)-7-oxo-6,7-dihydro-3H-spiro[dipyrrolo[2,3-b:3′,2′-d]pyridine-8,4′-piperidin]-1′-yl)cyclobutyl)acetonitrile, trifluoroacetate salt]",≥ 7.00,≥ 7.00,6.30 to 7.00,6.30 to 7.00
"CN1C(=O)C2(CCN(C3(CC#N)CCC3)CC2)c2c1cnc1[nH]c(-c3cn(C)nc3C3CC3)c(-c3ccc4c(cnn4C)c3)c21 [Example 40, 2-(1-(2-(3-Cyclopropyl-1-methyl-1H-pyrazol-4-yl)-6-methyl-1-(1-methyl-1H-indazol-5-yl)-7-oxo-6,7-dihydro-3H-spiro[dipyrrolo[2,3-b:3′,2′-d]pyridine-8,4′-piperidin]-1′-yl)cyclobutyl)acetonitrile, trifluoroacetate salt]",≥ 7.00,≥ 7.00,< 5.60,< 5.60
"CC(=O)N1CCC(n2cc(-c3[nH]c4ncc5c(c4c3-c3ccc4c(cnn4C)c3)C3(CCN(C4(CC#N)CCC4)CC3)C(=O)N5C)cn2)CC1 [Example 41, 2-(1-(2-(1-(1-Acetylpiperidin-4-yl)-1H-pyrazol-4-yl)-6-methyl-1-(1-methyl-1H-indazol-5-yl)-7-oxo-6,7-dihydro-3H-spiro[dipyrrolo[2,3-b:3′,2′-d]pyridine-8-4′-piperidin]-1′-yl)cyclobutyl)acetonitrile, trifluoroacetate salt]",≥ 7.00,≥ 7.00,6.30 to 7.00,≥ 7.00
